{"source": "patent US10030039B2", "about": "“Anti-cancer agent and cancer cell killing method” (IHI Corporation, priority 2014, dated 2018)", "system": "cancer cell line (MDA-MB-231) for triple-negative breast cancer", "assay": "Cancer Cell Killing Effect Assay 5 (XTT assay)", "format": "cell-based", "conditions": "MDA-MB-231, 24 hours, 37° C., 5% CO2; 3.750 and 7.500 μM; FIG. 6", "description": "Cancer Cell Line: Cancer Cell Line (MDA-MB-231) (the G0 Phase) for Triple-Negative Breast Cancer XTT cell proliferation assay kit (manufactured by ATCC) The XTT labeled liquid mixture was adjusted by mixing the XTT reagent (5 ml) and an activation solution (0.1 ml). The cell proliferation assay was conducted in accordance with ATCC's experiment protocol. […] The cancer cell line for the triple-negative breast cancer was cultured by the same method as that of Example 4. RPMI-1640, 10% inactivated bovine serum (GIBCO, USA), and 100 units/ml of penicillin-streptomycin were added to each well (100 μl) of the microplate (for cell proliferation and with 96 holes and a flat bottom) and 3×10^5 cultured cells were seeded. […] The XTT assay was performed by the same method as that of Example 4. The cell survival rate was calculated on the basis of the results of the absorbance measurement and by the method explained in [Cancer Cell Killing Effect Assay 3]."}
{"smiles": "CC(=O)O[C@H]1C(=O)[C@@]2(C)[C@H]([C@H](OC(=O)c3ccccc3)[C@]3(O)C[C@H](OC(=O)[C@H](O)[C@@H](NC(=O)c4ccccc4)c4ccccc4)C(C)=C1C3(C)C)[C@]1(OC(C)=O)CO[C@@H]1C[C@@H]2O", "note": "[paclitaxel]", "values": [{"measurement": "concentration dependence of reduction of cell survival rate / cell killing effect", "value": "concentration-dependent up to a specified concentration"}]}
